Measurements as given in patent US20120225862A1, “HETEROARYL BENZAMIDES, COMPOSITIONS AND METHODS OF USE” (AUCKLAND UNIVSERVICES LIMITED, priority 2009, published 2012).

Experiments:
RCC4 = assay: XTT IC50 / viability assay, RCC4 cells; type: cell-based, human; details: Homo sapiens, RCC4, 96 h; XTT assay, four days
Description: (§1) RCC4 parental and RCC4 with VHL-reintroduced (RCC4/VHL), SN12C and SN12C-CSCG-VHL shRNA were maintained in DMEM supplemented with 10% FCS.
(§2) IC50 values for compounds were determined by XTT assay. For 2,3-bis[2-methoxy-4-nitro-5-sulfophenyl]-2H-tetrazolium-5-carboxanilide inner salt (XTT) assays, five thousand cells were plated in 96-well plates. The next day, vehicle or drug was added to each well and incubated for four days. Media was aspirated and phenol red-free medium with 0.3 mg/mL XTT and 2.65 ug/mL N-methyl dibenzopyrazine methyl sulfate was added. This was incubated at 37° C. for 1-2 hours and absorbance was read at 450 nm. IC50 values for each compound were calculated using linear interpolation.
(§3) For 2,3-bis[2-methoxy-4-nitro-5-sulfophenyl]-2H-tetrazolium-5-carboxanilide (XTT) assays, five thousand cells were plated in 96-well plates. The next day, vehicle (DMSO) or drug was added by serial dilution. Four days later, media were aspirated, XTT solution (0.3 mg/ml of XTT (Sigma), 2.65 mg/ml N-methyl dibenxopyrazine methyl sulfate (Simga) in phenol red-free media) was added, and the plates were incubated at 37° C. for 1-2 hours. Metabolism of XTT was quantified by measuring the absorbance at 450 nm. IC50s were calculated using linear interpolation. For clonogenic survival assays, three hundred cells were plated per 60 mm tissue culture dish. The cells were allowed to attach overnight and then treated with vehicle or drug for 14 days. Colonies were fixed and stained with crystal violet (0.1% crystal violet in 95% ethanol). All conditions were measured in triplicate and each experiment was done in duplicate or triplicate. To determine necrosis, cells were treated with drug for a given time point. Media and cells were collected, centrifugated, and resuspended in 0.4% trypan blue (Invitrogen). Live and dead cells were counted on a hematocytometer.

RCC4/VHL = assay: XTT IC50 assay, selectivity RCC4 versus RCC4 with VHL-reintroduced; type: cell-based, human; details: selectivity ratio of XTT IC50 values, RCC4 vs RCC4/VHL
Description: as §1, §2, §3

| Compound | IC50 (RCC4) [µM] | Ratio (RCC4:RCC/VHL) (RCC4/VHL) |
| --- | --- | --- |
| CN(C)c1cccc2c(S(=O)(=O)NCc3ccc(C(=O)Nc4cccnc4)cc3)cccc12 [Example 73, 4-((5-(Dimethylamino)naphthalene-1-sulfonamido)methyl)-N-(pyridin-3-yl)benzamide] | < 1 | c (“c” reflects a ratio of >100) |
| N#Cc1cccc(S(=O)(=O)NCc2ccc(C(=O)Nc3cccnc3)cc2)c1 [Example 24, 4-((3-Cyanophenylsulfonamido)methyl)-N-(pyridin-3-yl)benzamide] | 1 to 20 | a (“a” reflects a ratio of RCC4/RCC-VHL+ ranging from 1 to 10) |
| O=C(Nc1cccnc1)c1ccc(CNS(=O)(=O)c2cccc(Cl)c2)cc1 [Example 21, 4-((3-Chlorophenylsulfonamido)methyl)-N-(pyridin-3-yl)benzamide] | < 1 | b (“b” reflects from 10 to 100) |
| O=C(Nc1cccnc1)c1ccc(CNS(=O)(=O)c2ccc(-c3ccccc3)cc2)cc1 [Example 54, 4-((Biphenyl-4-ylsulfonamido)methyl)-N-(pyridin-3-yl)benzamide] | 1 to 20 | b (“b” reflects from 10 to 100) |
| Cc1ccc(S(=O)(=O)NCc2ccc(C(=O)Nc3cccnc3)cc2)c(C)c1 [Example 64, 4-((2,4-Dimethylphenylsulfonamido)methyl)-N-(pyridin-3-yl)benzamide] | 1 to 20 | a (“a” reflects a ratio of RCC4/RCC-VHL+ ranging from 1 to 10) |
| CN1CCN(c2cccc(S(=O)(=O)NCc3ccc(C(=O)Nc4cccnc4)cc3)c2)CC1 [Example 132, 4-[({[3-(4-Methyl-1-piperazinyl)phenyl]sulfonyl}amino)methyl]-N-(3-pyridinyl)benzamide] | < 1 | b (“b” reflects from 10 to 100) |
| O=C(Nc1cccnc1)c1ccc(CNS(=O)(=O)c2cccc(F)c2)cc1 [Example 20, 4-((3-Fluorophenylsulfonamido)methyl)-N-(pyridin-3-yl)benzamide] | < 1 | b (“b” reflects from 10 to 100) |
| O=C(Nc1cccnc1)c1ccc(CNS(=O)(=O)c2ccc(CN3CCOCC3)cc2)cc1 [Example 83, 4-[({[4-(4-Morpholinylmethyl)phenyl]sulfonyl}amino)methyl]-N-(3-pyridinyl)benzamide] | < 1 | c (“c” reflects a ratio of >100) |
| O=C(Nc1cccnc1)c1ccc(CNS(=O)(=O)c2ccc(CN3CCCC3)cc2)cc1 [Example 80, 4-[({[4-(1-Pyrrolidinylmethyl)phenyl]sulfonyl}amino)methyl]-N-(3-pyridinyl)-benzamide] | < 1 | c (“c” reflects a ratio of >100) |
| CN1CCN(Cc2ccc(S(=O)(=O)NCc3ccc(C(=O)Nc4cccnc4)cc3)cc2)CC1 [Example 85, 4-{[({4-[(4-Methyl-1-piperazinyl)methyl]phenyl}sulfonyl)amino]methyl}-N-(3-pyridinyl)benzamide] | < 1 | c (“c” reflects a ratio of >100) |
| O=C(Nc1cccnc1)c1ccc(CNS(=O)(=O)c2ccc(Oc3ccccc3)cc2)cc1 [Example 35, 4-((4-Phenoxyphenylsulfonamido)methyl)-N-(pyridin-3-yl)benzamide] | 1 to 20 | b (“b” reflects from 10 to 100) |
| Cn1ccc(-c2cccc(S(=O)(=O)NCc3ccc(C(=O)Nc4cccnc4)cc3)c2)n1 [Example 28, 4-[({[3-(1-Methyl-1H-pyrazol-3-yl)phenyl]sulfonyl}amino)methyl]-N-(3-pyridinyl)benzamide] | < 1 | c (“c” reflects a ratio of >100) |
| O=C(Nc1cccnc1)c1ccc(CNS(=O)(=O)c2ccc(-c3cnco3)cc2)cc1 [Example 60, 4-[({[4-(1,3-Oxazol-5-yl)phenyl]sulfonyl}amino)methyl]-N-(3-pyridinyl)benzamide] | < 1 | b (“b” reflects from 10 to 100) |
| CC(C)(C)c1ccc(S(=O)(=O)NCc2ccc(C(=O)Nc3cccnc3Cl)cc2)cc1 [Example 113, 4-({[(4-tert-Butylphenyl)sulfonyl]amino}methyl)-N-(2-chloro-3-pyridinyl)benzamide] | > 20 | a (“a” reflects a ratio of RCC4/RCC-VHL+ ranging from 1 to 10) |
| O=C(Nc1cccnc1)c1ccc(CNS(=O)(=O)c2ccc(CCCN3CCOCC3)cc2)cc1 [Example 141, 4-{[({4-[3-(4-Morpholinyl)propyl]phenyl}sulfonyl)amino]methyl}-N-(3-pyridinyl)benzamide] | < 1 | c (“c” reflects a ratio of >100) |
| CC(C)(C)c1ccc(S(=O)(=O)NCc2cccc(C(=O)Nc3cccnc3)c2)cc1 [Example 91, 3-[(4-tert-Butylphenylsulfonamido)methyl]-N-(3-pyridinyl)benzamide] | > 20 |  |
| CN(C(=O)c1ccc(CNS(=O)(=O)c2ccc(C(C)(C)C)cc2)cc1)c1cccnc1 [Example 89, 4-[(4-tert-Butylphenylsulfonamido)methyl]-N-methyl-N-(3-pyridinyl)benzamide] | 1 to 20 | a (“a” reflects a ratio of RCC4/RCC-VHL+ ranging from 1 to 10) |
| O=C(Nc1ccncc1)c1ccc(CNS(=O)(=O)c2ccc(F)cc2)cc1 [Example 97, 4-[(4-Fluorophenylsulfonamido)methyl]-N-(4-pyridinyl)benzamide] | > 20 |  |
| Cc1cccc(S(=O)(=O)NCc2ccc(C(=O)Nc3cccnc3)cc2)c1 [Example 19, 4-((3-Methylphenylsulfonamido)methyl)-N-(pyridin-3-yl)benzamide] | < 1 | b (“b” reflects from 10 to 100) |
| Cc1cc(C)cc(CNCc2ccc(C(=O)Nc3cccnc3)cc2)c1 [Compound C, reference compound] | > 20 |  |
| O=C(Nc1ccccn1)c1ccc(CNS(=O)(=O)c2ccccc2)cc1 [Example 1, 4-(Phenylsulfonamidomethyl)-N-(pyridin-2-yl)benzamide] | > 20 |  |
| NCCOCCOCCOCCOCCOCCOCC#Cc1ccc(S(=O)(=O)NCc2ccc(C(=O)Nc3ccncc3)cc2)cc1 [Example 105, 4-[({[4-(21-Amino-4,7,10,13,16,19-hexaoxahenicos-1-yn-1-yl)phenyl]sulfonyl}amino)methyl]-N-(4-pyridinyl)benzamide] | > 20 |  |
| O=C(Nc1cccnc1)c1cccc(CNS(=O)(=O)c2ccccc2)c1 [Example 92, 3-[(Phenylsulfonamido)methyl]-N-(3-pyridinyl)benzamide] | > 20 |  |
| CC(C)(C)c1ccc(COC(=O)NCc2ccc(C(=O)Nc3cccnc3)cc2)cc1 [Compound D, reference compound] | > 20 |  |
| O=C(Nc1ccncc1)c1ccc(CNS(=O)(=O)c2ccccc2)cc1 [Example 3, 4-(Phenylsulfonamidomethyl)-N-(pyridin-4-yl)benzamide] | > 20 |  |
| CC(C)(C)c1ccc(C(=O)NCc2ccc(C(=O)Nc3cccnc3)cc2)cc1 [Example 86, 4-tert-Butyl-N-(4-(pyridin-3-ylcarbamoyl)benzyl)benzamide] | > 20 |  |
| O=C(Nc1ccncc1)c1ccc(CNS(=O)(=O)c2ccc(Br)cc2)cc1 [Example 96, 4-[(4-Bromophenylsulfonamido)methyl]-N-(4-pyridinyl)benzamide] | > 20 |  |
